# Assay results: ChEMBL document CHEMBL1201862, “PubChem BioAssay data set” (2004)
#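 In this assay, cells in 96-well plates receive the compound at five concentrations for 48 hours. Endpoints are linearly interpolated between the surrounding concentrations. At the GI50, growth is halved.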 Calls of active or inactive are those of the source. No stated cut-off is given here; in the data, active = GI50 up to about 1.1 µM and inactive = higher.
# Assays:
# Experiment in all cases: NCI tumour cell line growth inhibition, 48 h
# 786-0 = tested on: 786-0
# ACHN = tested on: ACHN
# BT-549 = tested on: BT-549
# COLO 205 = tested on: COLO 205
# HL-60 = tested on: HL-60
# MCF7 = tested on: MCF7
# MDA-MB-231 = tested on: MDA-MB-231
# MDA-MB-435 = tested on: MDA-MB-435
# MOLT-4 = tested on: MOLT-4
# Malme-3M = tested on: Malme-3M
# NCI-H226 = tested on: NCI-H226
# OVCAR-3 = tested on: OVCAR-3
# RXF 393 = tested on: RXF 393
# SF-268 = tested on: SF-268
# SK-MEL-28 = tested on: SK-MEL-28
# SK-OV-3 = tested on: SK-OV-3
# U-251 = tested on: U-251
# UACC-257 = tested on: UACC-257
# UO-31 = tested on: UO-31
# SK-MEL-2 = tested on: SK-MEL-2
SMILES,GI50 (786-0),GI50 (ACHN),GI50 (BT-549),GI50 (COLO 205),GI50 (HL-60),GI50 (MCF7),GI50 (MDA-MB-231),GI50 (MDA-MB-435),GI50 (MOLT-4),GI50 (Malme-3M),GI50 (NCI-H226),GI50 (OVCAR-3),GI50 (RXF 393),GI50 (SF-268),GI50 (SK-MEL-28),GI50 (SK-OV-3),GI50 (U-251),GI50 (UACC-257),GI50 (UO-31),GI50 (SK-MEL-2)
Clc1ccc(CSC2=NCCN2)cc1Cl,11.6 µM (inactive),15 µM (inactive),18.8 µM (inactive),17.7 µM (inactive),10.9 µM (inactive),11.1 µM (inactive),11.8 µM (inactive),16 µM (inactive),11.2 µM (inactive),13 µM (inactive),20.7 µM (inactive),14.1 µM (inactive),14.2 µM (inactive),14.9 µM (inactive),18.7 µM (inactive),24.6 µM (inactive),12.5 µM (inactive),11.1 µM (inactive),11.4 µM (inactive),–
COc1ccc([S+]([O-])Cc2cc(OC)ccc2OC)cc1 (stereo not drawn),> 100 µM (inactive),> 100 µM (inactive),> 100 µM (inactive),> 100 µM (inactive),–,> 100 µM (inactive),> 100 µM (inactive),> 100 µM (inactive),> 100 µM (inactive),> 100 µM (inactive),> 100 µM (inactive),> 100 µM (inactive),> 100 µM (inactive),> 100 µM (inactive),> 100 µM (inactive),> 100 µM (inactive),> 100 µM (inactive),> 100 µM (inactive),> 100 µM (inactive),–
COC(=O)C1(C)CCc2c(ccc3ccccc23)C1=O (stereo not drawn),65 µM (inactive),55.1 µM (inactive),27.1 µM (inactive),21.3 µM (inactive),35.9 µM (inactive),30.6 µM (inactive),49.1 µM (inactive),34.4 µM (inactive),34.8 µM (inactive),27.8 µM (inactive),–,30.1 µM (inactive),25 µM (inactive),32.1 µM (inactive),64.7 µM (inactive),71.1 µM (inactive),46.5 µM (inactive),24.5 µM (inactive),33.3 µM (inactive),26.8 µM (inactive)
Cc1ccc(S(=O)(=O)N/N=C2/C3CC4CCC2C4C3)cc1 (stereo not drawn),> 100 µM (inactive),> 100 µM (inactive),> 100 µM (inactive),> 100 µM (inactive),–,> 100 µM (inactive),> 100 µM (inactive),> 100 µM (inactive),–,> 100 µM (inactive),> 100 µM (inactive),> 100 µM (inactive),> 100 µM (inactive),> 100 µM (inactive),> 100 µM (inactive),> 100 µM (inactive),> 100 µM (inactive),> 100 µM (inactive),> 100 µM (inactive),–
COc1ccc(NC2CC(C)N(C(=O)c3ccccc3)O2)cc1 (stereo not drawn),> 10 µM (inactive),> 10 µM (inactive),8.79 µM (inactive),> 10 µM (inactive),9.91 µM (inactive),> 10 µM (inactive),> 10 µM (inactive),> 10 µM (inactive),> 10 µM (inactive),> 10 µM (inactive),–,> 10 µM (inactive),> 10 µM (inactive),> 10 µM (inactive),> 10 µM (inactive),> 10 µM (inactive),–,> 10 µM (inactive),> 10 µM (inactive),> 10 µM (inactive)
CCOc1cc(NC(C)=O)ccc1C(=O)NN1C(=O)C(Cl)C1c1ccccc1 (stereo not drawn),14.6 µM (inactive),16.2 µM (inactive),11.4 µM (inactive),14.2 µM (inactive),14.1 µM (inactive),7.74 µM (inactive),13.2 µM (inactive),11.5 µM (inactive),3.68 µM (inactive),11.2 µM (inactive),12.7 µM (inactive),14.7 µM (inactive),13.6 µM (inactive),16.7 µM (inactive),16.9 µM (inactive),16.9 µM (inactive),–,11.9 µM (inactive),3.31 µM (inactive),14.3 µM (inactive)
C/C(=N\N=C(N)N)c1c(C(=O)OCCCCCCOC(=O)c2nc3sccn3c2/C(C)=N/N=C(N)N)nc2sccn12,41.9 µM (inactive),> 100 µM (inactive),> 100 µM (inactive),> 100 µM (inactive),32.1 µM (inactive),47.4 µM (inactive),> 100 µM (inactive),> 100 µM (inactive),32.2 µM (inactive),43.4 µM (inactive),> 100 µM (inactive),–,> 100 µM (inactive),49.1 µM (inactive),> 100 µM (inactive),–,37.7 µM (inactive),> 100 µM (inactive),69.5 µM (inactive),> 100 µM (inactive)
CC1OC(OC2C(OC3CCC4(C)C(CCC5(C)C4CC=C4C6CC(C)(C)CCC6(C(=O)O)CCC45C)C3(C)CO)OCC(O)C2O)C(O)C(O)C1O (stereo not drawn),30.7 µM (inactive),19 µM (inactive),16.7 µM (inactive),20.8 µM (inactive),–,0.46 µM (active),17.9 µM (inactive),18.7 µM (inactive),14.6 µM (inactive),19.3 µM (inactive),21.2 µM (inactive),27.3 µM (inactive),2.72 µM (inactive),17.1 µM (inactive),6.37 µM (inactive),18.1 µM (inactive),21.9 µM (inactive),18.5 µM (inactive),3.66 µM (inactive),17.7 µM (inactive)
OC1(c2ccc3ccccc3c2)c2ccc3ccccc3c2C2=NCCN21 (stereo not drawn),24.8 µM (inactive),> 100 µM (inactive),> 100 µM (inactive),> 100 µM (inactive),> 100 µM (inactive),48.2 µM (inactive),76.4 µM (inactive),> 100 µM (inactive),> 100 µM (inactive),> 100 µM (inactive),–,> 100 µM (inactive),29.4 µM (inactive),54.3 µM (inactive),> 100 µM (inactive),> 100 µM (inactive),45.7 µM (inactive),> 100 µM (inactive),40.9 µM (inactive),> 100 µM (inactive)
CCOC(=O)C(NC(=O)CC)(Nc1ccccc1F)C(F)(F)F (stereo not drawn),–,48.9 µM (inactive),> 100 µM (inactive),> 100 µM (inactive),> 100 µM (inactive),> 100 µM (inactive),> 100 µM (inactive),> 100 µM (inactive),> 100 µM (inactive),–,–,> 100 µM (inactive),> 100 µM (inactive),> 100 µM (inactive),> 100 µM (inactive),> 100 µM (inactive),> 100 µM (inactive),> 100 µM (inactive),> 100 µM (inactive),> 100 µM (inactive)
NNC(=O)c1c(Cl)c(Cl)c(Cl)c(Cl)c1-c1nc2ccccc2[nH]1,18.5 µM (inactive),17.1 µM (inactive),14.9 µM (inactive),16.4 µM (inactive),4.7 µM (inactive),2.96 µM (inactive),21.3 µM (inactive),2.12 µM (inactive),4.66 µM (inactive),14.3 µM (inactive),16.8 µM (inactive),6.64 µM (inactive),3.49 µM (inactive),17.4 µM (inactive),15.8 µM (inactive),15.7 µM (inactive),–,12.6 µM (inactive),19.4 µM (inactive),6.41 µM (inactive)
COc1cc(/C=N/n2c(Cc3ccc(Cl)cc3)n[nH]c2=O)cc(OC)c1OC,> 100 µM (inactive),> 100 µM (inactive),> 100 µM (inactive),> 100 µM (inactive),–,> 100 µM (inactive),> 100 µM (inactive),> 100 µM (inactive),> 100 µM (inactive),> 100 µM (inactive),> 100 µM (inactive),85.9 µM (inactive),> 100 µM (inactive),46.3 µM (inactive),> 100 µM (inactive),> 100 µM (inactive),> 100 µM (inactive),37.5 µM (inactive),> 100 µM (inactive),> 100 µM (inactive)
CC(=O)c1cc2ccccc2oc1=O [3-ACETYLCOUMARIN],> 100 µM (inactive),> 100 µM (inactive),> 100 µM (inactive),> 100 µM (inactive),> 100 µM (inactive),36.2 µM (inactive),> 100 µM (inactive),> 100 µM (inactive),> 100 µM (inactive),> 100 µM (inactive),> 100 µM (inactive),> 100 µM (inactive),> 100 µM (inactive),> 100 µM (inactive),> 100 µM (inactive),–,> 100 µM (inactive),> 100 µM (inactive),92.3 µM (inactive),> 100 µM (inactive)
CCCc1nc(Cl)nc(Cl)c1Cl,0.127 µM (active),0.611 µM (active),0.0227 µM (active),0.232 µM (active),0.189 µM (active),0.137 µM (active),0.665 µM (active),0.422 µM (active),0.065 µM (active),0.453 µM (active),2.35 µM (inactive),0.129 µM (active),0.256 µM (active),1.85 µM (inactive),0.472 µM (active),3.01 µM (inactive),0.67 µM (active),0.615 µM (active),–,0.291 µM (active)
O=C1/C(=C/c2ccc3c(c2)CCC3)Cc2cc3c(cc21)CCC3,–,> 100 µM (inactive),> 100 µM (inactive),> 100 µM (inactive),> 100 µM (inactive),> 100 µM (inactive),76.9 µM (inactive),> 100 µM (inactive),> 100 µM (inactive),> 100 µM (inactive),> 100 µM (inactive),> 100 µM (inactive),49.3 µM (inactive),> 100 µM (inactive),> 100 µM (inactive),> 100 µM (inactive),> 100 µM (inactive),> 100 µM (inactive),> 100 µM (inactive),> 100 µM (inactive)
